Tested on: cells in the GCL of mouse retinas
Test: NMDA-induced excitotoxic cell death in the GCL of retina-eyecups
Type: cell-based
Procedure: All animal procedures were in compliance with the NIH Guide for the Care and Use of Laboratory Animals and approved by the Institutional Animal Care and Use Committees at SUNY College of Optometry. Experiments were performed on retinas of wild type (WT), connexin knockout (KO) mice (Cx36^−/−, Cx45^−/−, and Cx36^−/−/45^−/− dKO), and their heterozygous (Het) littermates. The methods used to impale and label neurons have been described previously (Hu et al., J Neurosci 23:[…] (2003); Völgyi et al., Journal of Comparative Neurology 512:664-687 (2009)). Briefly, flattened retina-eyecups were placed in a superfusion chamber, which was mounted on the stage of a BX51WI light microscope (Olympus) within a light-tight Faraday cage. […] The retina-eyecups were superfused with a modified, oxygenated Ames medium maintained at 35° C.
Various methods were employed to produce cell death. (1) Single cell apoptosis: CytC was injected into individual RGCs or Müller cells for 15 minutes after which retinas were incubated for 4 hours in oxygenated Ames medium before fixation. After streptavidin histology, apoptotic cells were detected with an anti-active caspase 3 antibody or with Terminal deoxynucleotidyl transferase dUTP nick end labeling (TUNEL) staining. (2) Excitotoxicity: To assess the contribution of GJs to cell death within populations of RGCs and amacrine cells we conducted parallel experiments in which retinas were preincubated for 20 minutes in normal Ames medium or in one containing the GJ blockers meclofenamic acid (MFA; 50 μM) or 18-beta-glycyrrhetinic acid (18Beta-GA; 25 μM). Both control and drug-treated retinas were then exposed for 1 hour to NMDA (100-300 μM) to induce excitotoxicity followed by 4 hours in the control Ames solution. (3) Retinal ischemia: Transient in vivo retinal ischemia was induced by introducing into the anterior chamber a 33-gauge needle attached to a saline-filled reservoir (0.9% sodium chloride) that was raised above the animal so as to increase intraocular pressure (IOP) to a level […]. MFA (2 μl, 500 μM) was administered intravitreally either 30 minutes before or 3 and 24 hours following the ischemic insult. […]
Apoptotic and necrotic cell death were assessed by cell counts following: (1) staining with Live/Death Viability Assay (calcein AM/ethidium homodimer (EthD) (Invitrogen); (2) TUNEL, or, (3) labeling for activated caspase 3. For population studies, dead cells were counted manually within 500×500 μm areas (5 areas per retina) from micrographs of whole-mounts using images acquired by confocal microscope. Nuclear cell counts were made per unit length (500 μm) of frozen retinal cross-sections labeled with propidium iodide (2 μg/ml).

CC1(C)[C@@H](O)CC[C@]2(C)[C@H]3C(=O)C=C4[C@@H]5C[C@@](C)(C(=O)O)CC[C@]5(C)CC[C@@]4(C)[C@]3(C)CC[C@@H]12 [18Beta-GA, 18-Beta-glycyrrhetinic acid]
cell viability, blocker alone (control experiments, 18Beta-GA or MFA alone without NMDA, p>0.1): did not affect cell viability
cell death in the GCL induced by excitotoxicity (retinas preincubated in 18Beta-GA 25 μM or MFA 50 μM, then NMDA 100-300 μM 1 h, vs NMDA alone, p<0.001): significantly reduced
